{"source": "patent US20140371165A1", "about": "“Identification of NSC23925 Isomers to Reverse Multidrug Resistance in Human Cancers” (priority 2012, published 2014)", "key": {"SKOV-3TR": {"tested_on": "SKOV-3TR", "assay": "MTT cytotoxicity assay and reversal of MDR in SKOV-3TR", "type": "cell-based, human", "description": "(§1) A panel of parental cancer cell line and their daughter resistant cell lines, displaying MDR phenotype were used in this study. Human ovarian cancer cell line SKOV-3, breast cancer cell line MCF-7 and colon cancer cell line SW480, the osteosarcoma cell line U-2OS, KHOS, uterine sarcoma cell line MESSA and its doxorubicin selected drug resistant cell line MESSA/Dx5, non-small cell lung cancer cell line H-69 and its doxorubicin selected drug resistant cell line H-69AR (overexpress MRP1) were obtained from the ATCC (Rockville, Md.). Dr. Efstathios Gonos (Institute of Biological Research & Biotechnology, Athens, Greece) provided the doxorubicin resistant U-2OS R2 (referred in the text below as U-2OSDR), KHOS R2 cell lines. Dr. Erasmus Schneider (Wadsworth Center, Albany) provided the mitoxantrane resistant breast cancer MCF-7/MX (overexpress BCRP) cell line. All the cell lines were cultured in RPMI 1640 (Invitrogen, Carlsbad, Calif.) supplemented with 10% fetal bovine serum, 100-units/ml penicillin and 100 μg/ml streptomycin (Invitrogen). Cells were incubated at 37° C. in 5% CO2-95% air atmosphere and passaged when near confluent monolayers were achieved using 2% trypsin-EDTA solution. […] The fresh chemotherapy drugs were obtained from the pharmacy at the Massachusetts General Hospital and stored at −20° C.\n(§2) To evaluate for reversal of Pgp-mediated MDR, SKOV-3TR, MCF-7adr and SW480TR cell lines were seeded into 96-well tissue culture plate at 2,000 cells per well with varying concentrations of chemotherapy drugs and NSC23925b for 6 days. Cell proliferation IC50 (concentration required for 50% inhibition) and MDR reversal IC50 were determined from dose-response curves carried out in triplicate in 96-well plate. Fold of reverse resistance for individual drugs were defined as the IC50 of MDR cells without NSC23925b treatment divided by the IC50 of MDR cells treated with NSC23925b. […] Drug cytotoxicity was assessed in vitro using the MTT assay as previously described. […] Response curves were fitted with use of GraphPad PRISM 4 software (GraphPad Software).\nStructure and activity relationship (SAR) of the four NSC23925 isomers for reversing MDR were evaluated in human ovarian cancer MDR cell line SKOV-3TR by MTT assay (FIGS. 1A-D). Cells were treated with the paclitaxel and NSC23925 diastereomers NSC23925a (FIG. 1A), NSC23925b (FIG. 1B), NSC23925c (FIG. 1C) and NSC23925d (FIG. 1D) in RPMI1640 complete media at the indicated concentrations. The relative sensitivity of each line to paclitaxel was determined by MTT analysis 6 days post-treatment."}, "H-69AR": {"tested_on": "H-69AR", "assay": "MTT reversal of MRP1-mediated MDR in H-69AR", "type": "cell-based, human", "conditions": "non-Pgp expressing drug resistant cell line"}, "SW480TR": {"tested_on": "SW480TR", "assay": "MTT cytotoxicity assay and reversal of MDR in SW480TR", "type": "cell-based, human", "description": "as §1, §2\nMCF-7adr and SW480TR cells were treated with paclitaxel (FIGS. 2A-B), doxorubicin (FIGS. 2C-D) or mitoxantrane (FIGS. 2E-F) and NSC23925b in RPMI1640 complete media at the indicated concentrations. The relative sensitivity of each line to the indicated drugs was determined by MTT analysis 6 days post-treatment."}, "[1]": {"assay": "Solubility in organic solvents", "type": "physicochemical"}, "MDR cancer cell lines": {"tested_on": "MDR cancer cell lines", "assay": "MTT reversal of drug resistance in MDR cell lines (cell line not specified)", "type": "cell-based", "description": "A panel of parental cancer cell line and their daughter resistant cell lines, displaying MDR phenotype were used in this study. Human ovarian cancer cell line SKOV-3, breast cancer cell line MCF-7 and colon cancer cell line SW480, the osteosarcoma cell line U-2OS, KHOS, uterine sarcoma cell line MESSA and its doxorubicin selected drug resistant cell line MESSA/Dx5, non-small cell lung cancer cell line H-69 and its doxorubicin selected drug resistant cell line H-69AR (overexpress MRP1) were obtained from the ATCC (Rockville, Md.). Dr. Efstathios Gonos (Institute of Biological Research & Biotechnology, Athens, Greece) provided the doxorubicin resistant U-2OS R2 (referred in the text below as U-2OSDR), KHOS R2 cell lines. Dr. Erasmus Schneider (Wadsworth Center, Albany) provided the mitoxantrane resistant breast cancer MCF-7/MX (overexpress BCRP) cell line. All the cell lines were cultured in RPMI 1640 (Invitrogen, Carlsbad, Calif.) supplemented with 10% fetal bovine serum, 100-units/ml penicillin and 100 μg/ml streptomycin (Invitrogen). Cells were incubated at 37° C. in 5% CO2-95% air atmosphere and passaged when near confluent monolayers were achieved using 2% trypsin-EDTA solution. Drug-resistant cell lines were periodically cultured in the respective drug to confirm their drug resistance characteristics. The fresh chemotherapy drugs were obtained from the pharmacy at the Massachusetts General Hospital and stored at −20° C.\nTo evaluate for reversal of Pgp-mediated MDR, SKOV-3TR, MCF-7adr and SW480TR cell lines were seeded into 96-well tissue culture plate at 2,000 cells per well with varying concentrations of chemotherapy drugs and NSC23925b for 6 days. Cell proliferation IC50 (concentration required for 50% inhibition) and MDR reversal IC50 were determined from dose-response curves carried out in triplicate in 96-well plate. Fold of reverse resistance for individual drugs were defined as the IC50 of MDR cells without NSC23925b treatment divided by the IC50 of MDR cells treated with NSC23925b. To test for the effect of reversal of MRP1 or BCRP-mediated MDR, H-69AR or MCF-7/MX cells were placed into 96-wells and treated with chemotherapy drugs similar as described above. Drug cytotoxicity was assessed in vitro using the MTT assay as previously described. Drugs at the concentrations utilized in the MTT assay were performed in the absence of cells to verify no change in absorbance. Response curves were fitted with use of GraphPad PRISM 4 software (GraphPad Software)."}, "[2]": {"conditions": "Reverse Drug Resistance by NSC23925b, value = chemotherapy drug, hydrochloride"}}, "note": "“Also recorded” adds a separate entry of the source. Where a name gives a salt, the structure may show the parent alone."}
{"smiles": "COc1ccc(-c2cc([C@H](O)[C@H]3CCCCN3)c3ccccc3n2)cc1", "note": "[NSC23925b, (2-(4-methoxyphenyl)quinolin-4-yl)(piperidin-2-yl)methanol hydrochloride]", "values": [{"measurement": "fold-reversal of drug resistance", "setting": "SKOV-3TR; Doxorubicin, NSC23925b 0.1 μM", "value": 2, "unit": "fold"}, {"measurement": "fold-reversal of drug resistance", "setting": "SKOV-3TR; Doxorubicin, NSC23925b 0.5 μM", "value": 9, "unit": "fold"}, {"measurement": "fold-reversal of drug resistance", "setting": "SKOV-3TR; Doxorubicin, NSC23925b 1 μM", "value": 32, "unit": "fold"}, {"measurement": "fold-reversal of drug resistance", "setting": "SKOV-3TR; Mitoxantrane, NSC23925b 0.1 μM", "value": 1.2, "unit": "fold"}, {"measurement": "fold-reversal of drug resistance", "setting": "SKOV-3TR; Mitoxantrane, NSC23925b 0.5 μM", "value": 2.6, "unit": "fold"}, {"measurement": "fold-reversal of drug resistance", "setting": "SKOV-3TR; Mitoxantrane, NSC23925b 1 μM", "value": 8, "unit": "fold"}, {"measurement": "fold-reversal of drug resistance", "setting": "SKOV-3TR; Paclitaxel, NSC23925b 0.1 μM", "value": 2, "unit": "fold"}, {"measurement": "fold-reversal of drug resistance", "setting": "SKOV-3TR; Paclitaxel, NSC23925b 0.5 μM", "value": 7, "unit": "fold"}, {"measurement": "fold-reversal of drug resistance", "setting": "SKOV-3TR; Paclitaxel, NSC23925b 1 μM", "value": 28, "unit": "fold"}, {"measurement": "potency of isomer on reversing drug resistance", "setting": "SKOV-3TR; with paclitaxel, MTT 6 days post-treatment", "value": "most potent isomer"}, {"measurement": "reversal of MRP1 mediated drug resistance", "setting": "H-69AR", "value": "unable to reverse drug resistance"}, {"measurement": "fold-reversal of drug resistance", "setting": "SW480TR; Doxorubicin, NSC23925b 0.1 μM", "value": 1.7, "unit": "fold"}, {"measurement": "fold-reversal of drug resistance", "setting": "SW480TR; Doxorubicin, NSC23925b 0.5 μM", "value": 3, "unit": "fold"}, {"measurement": "fold-reversal of drug resistance", "setting": "SW480TR; Doxorubicin, NSC23925b 1 μM", "value": 8, "unit": "fold"}, {"measurement": "reverse paclitaxel, doxorubicin, and mitoxantrane resistance", "setting": "SW480TR; MTT 6 days post-treatment", "value": "able to reverse"}, {"measurement": "fold-reversal of drug resistance", "setting": "SW480TR; Mitoxantrane, NSC23925b 0.1 μM", "value": 1.2, "unit": "fold"}, {"measurement": "fold-reversal of drug resistance", "setting": "SW480TR; Mitoxantrane, NSC23925b 0.5 μM", "value": 3, "unit": "fold"}, {"measurement": "fold-reversal of drug resistance", "setting": "SW480TR; Mitoxantrane, NSC23925b 1 μM", "value": 14, "unit": "fold"}, {"measurement": "fold-reversal of drug resistance", "setting": "SW480TR; Paclitaxel, NSC23925b 0.1 μM", "value": 1.3, "unit": "fold"}, {"measurement": "fold-reversal of drug resistance", "setting": "SW480TR; Paclitaxel, NSC23925b 0.5 μM", "value": 8, "unit": "fold"}, {"measurement": "fold-reversal of drug resistance", "setting": "SW480TR; Paclitaxel, NSC23925b 1 μM", "value": 13, "unit": "fold"}, {"measurement": "solubility in other solvents", "setting": "[1]; either, ethyl acetate, chloroform, dichloromethane, acetone, tetrahydrofuran, cyclohexane, cyclopentane, hexanes, pentane", "value": "not soluble"}, {"measurement": "solubility in methanol", "setting": "[1]; methanol", "value": "soluble"}, {"measurement": "5 milligram solubility in methanol", "setting": "[1]; volume of methanol for 5 milligram", "value": 450, "unit": "µL"}, {"measurement": "effects on the drug sensitivities of cisplatin, carboplatin, toptecan and methotrexate", "setting": "MDR cancer cell lines", "value": "no significant effects"}, {"measurement": "Decreased Drug Resistance (drug to which NSC23925b decreased resistance)", "setting": "MDR cancer cell lines; [2]", "value": "Gemcitabine; also recorded: ET-743; also recorded: Mitoxantrane; also recorded: Paclitaxel; also recorded: Docetaxel; also recorded: Doxorubicin; also recorded: Vincristine; also recorded: Daunorubicin"}, {"measurement": "No Effect (drug whose resistance NSC23925b did not change)", "setting": "MDR cancer cell lines; [2]", "value": "Cisplatin; also recorded: Carboplatin; also recorded: Topotecan; also recorded: Methotrexate"}, {"measurement": "effect on doxorubicin-induced cell death (MTT cytotoxicity assay)", "setting": "MDR cancer cell lines; combined with doxorubicin", "value": "synergistic effect"}, {"measurement": "reverse MDR to paclitaxel, doxorubicin, and mitoxantrane", "setting": "MDR cancer cell lines; ovarian, breast, uterine, colon, and sarcoma MDR cancer cell lines", "value": "able to reverse MDR"}]}
